Experimental data reported in BindingDB's records for doi:10.1016/j.bmcl.2021.128215 (Shenyang Pharmaceutical University, 2021).

Target: Apoptosis regulator Bcl-2 (Homo sapiens) (UniProt P10415)
Assay: Binding affinity to Bcl-2 (unknown origin) by fluorescence polarization competition assay

Apoptosis regulator Bcl-2 (Homo sapiens), sequence (P10415 whole entry, looked up): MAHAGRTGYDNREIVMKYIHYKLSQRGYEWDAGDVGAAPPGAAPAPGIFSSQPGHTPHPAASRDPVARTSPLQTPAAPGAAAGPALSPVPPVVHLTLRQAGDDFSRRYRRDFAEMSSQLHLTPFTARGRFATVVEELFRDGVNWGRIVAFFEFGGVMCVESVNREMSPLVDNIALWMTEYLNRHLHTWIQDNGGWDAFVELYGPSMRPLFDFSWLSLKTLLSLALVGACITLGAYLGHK

Ki	SMILES
4.53 µM	O=C(O)c1ccccc1-c1cccc2c1ccn2CCCOc1cccc2ccccc12
0.56 µM	Cc1cccc(-c2cn(CCCOc3cccc4ccccc34)c3cccc(-c4ccccc4C(=O)O)c23)c1
2.55 µM	O=C(O)c1ccccc1-c1cccc2c1c(-c1cccc(C(F)(F)F)c1)cn2CCCOc1cccc2ccccc12
0.49 µM	O=C(O)c1ccc(Cl)cc1-c1cccc2c1ccn2CCCOc1cccc2ccccc12
0.36 µM	Cc1cccc(-c2cn(CCOc3cccc4ccccc34)c3cccc(-c4ccccc4C(=O)O)c23)c1
0.25 µM	O=C(O)c1ccccc1-c1cccc2c1c(-c1cccc(C(F)(F)F)c1)cn2CCOc1cccc2ccccc12
3.21 µM	O=C(O)c1ccccc1-c1cccc2c1c(-c1cccc(Cl)c1)cn2CCOc1cccc2ccccc12
0.25 µM	Cc1ccccc1-c1cn(CCOc2cccc3ccccc23)c2cccc(-c3ccccc3C(=O)O)c12
0.87 µM	Cc1ccc(-c2cn(CCOc3cccc4ccccc34)c3cccc(-c4ccccc4C(=O)O)c23)cc1
0.3 µM	CCc1ccccc1-c1cn(CCOc2cccc3ccccc23)c2cccc(-c3ccccc3C(=O)O)c12
1.74 µM	CC(C)c1ccccc1-c1cn(CCOc2cccc3ccccc23)c2cccc(-c3ccccc3C(=O)O)c12
0.82 µM	COc1ccccc1-c1cn(CCOc2cccc3ccccc23)c2cccc(-c3ccccc3C(=O)O)c12
1.3 µM	Cc1cccc(-c2cn(CCOc3cccc4ccccc34)c3cccc(-c4ccccc4C(=O)O)c23)c1C
0.8 µM	Cc1ccc(-c2cn(Cc3cccc4ccccc34)c3cccc(-c4ccccc4C(=O)O)c23)cc1
1.8 µM	Cc1cccc(-c2cn(Cc3cccc4ccccc34)c3cccc(-c4ccccc4C(=O)O)c23)c1
0.66 µM	Cc1ccccc1-c1cn(Cc2cccc3ccccc23)c2cccc(-c3ccccc3C(=O)O)c12
1.28 µM	COc1ccccc1-c1cn(Cc2cccc3ccccc23)c2cccc(-c3ccccc3C(=O)O)c12
0.1 µM	O=C(O)c1ccccc1-c1cccc2c1c(-c1cccc(Cl)c1)cn2Cc1cccc2ccccc12
1.08 µM	O=C(O)c1ccccc1-c1cccc2c1c(-c1cccc(C(F)(F)F)c1)cn2Cc1cccc2ccccc12
0.53 µM	COc1cccc(-c2cn(Cc3cccc4ccccc34)c3cccc(-c4ccccc4C(=O)O)c23)c1
0.82 µM	O=C(O)c1ccccc1-c1cccc2c1c(-c1ccccc1)cn2Cc1cccc2ccccc12
